According to ChEMBL document CHEMBL6182861, “Structural modification of heptamethine indocyanine dyes with improved aqueous solubility and stability for photothermal therapy” (Eur J Med Chem, 2025):
Activity calls are given as the source filed them. The calls are words filed in the database; no cut-off is given here.

Assays:
[1] = Drug uptake in mouse 4T1 cells assessed as increase in fluorescence intensity at 3.12 uM incubated for 4 hrs by CLSM; format: ADME, cell-based; conditions: 4t1, 4 h
[2] = Photosensitizing property of compound assessed as generation of singlet-state oxygen by ESR spectrometry; format: functional
Mitochondrial membrane [3] = assay: Inhibition of mitochondrial membrane potential in mouse 4T1 cells at 3.12 uM incubated for 24 hrs by Rh123 probe based CLSM; format: cell membranes
4T1 [4] = assay: Antitumor activity against mouse 4T1 cells implanted in female BALB/c mouse assessed as tumor growth inhibition at 2.5 mg/kg, iv pretreated for 4 hrs followed by exposure to laser irradiation of 808 nm for 5 mins on every 2 days treated for 15 days; format: functional, organism-based; conditions: time 15.0 day
Mitochondrial membrane [5] = assay: Inhibition of mitochondrial membrane potential in human HepG2 cells at 3.12 uM preincubated for 4 hrs followed by exposure to laser irradiation of 808 nm for 2 mins and subsequent incubation for 20 hrs by flow cytometry; format: cell membranes; conditions: time 1442.0 min
Mitochondrial membrane [6] = assay: Inhibition of mitochondrial membrane potential in human HepG2 cells at 3.12 uM preincubated for 4 hrs followed by exposure to laser irradiation of 808 nm for 2 mins and subsequent incubation for 20 hrs by Rh123 probe based CLSM; format: cell membranes; conditions: time 1442.0 min
[7] = Photothermal stability of compound at 60 degreeC at 20 uM exposed to laser irradiation of 808 nm for 2.5 mins; format: physicochemical
[8] = Photothermal property of compound assessed as increase in photothermal conversion efficiency at 20 uM exposed to laser irradiation of 808 nm for 2 mins; format: functional
[9] = Photosensitizing property of compound assessed as generation of singlet-state oxygen at 10 uM exposed to laser irradiation of 808 nm for 2 mins by SOSG probe based analysis; format: functional
4T1 [10] = assay: Induction of apoptosis in mouse 4T1 cells at 3.12 uM incubated for 4 hrs followed by exposure to laser irradiation of 808 nm for 2 mins by Annexin V-FITC/PI staining based flow cytometry; format: functional, cell-based; conditions: time 242.0 min
[11] = Drug uptake in mouse 4T1 cells assessed as increase in fluorescence intensity at 3.12 uM incubated for 4 hrs by flow cytometry; format: ADME, cell-based; conditions: 4t1, 4 h
Mitochondrial membrane [12] = assay: Inhibition of mitochondrial membrane potential in mouse 4T1 cells at 3.12 uM preincubated for 4 hrs followed by exposure to laser irradiation of 808 nm for 2 mins and subsequent incubation for 20 hrs by flow cytometry; format: cell membranes; conditions: time 1442.0 min
[13] = Toxicity in ICR mouse bearing mouse H22 cells assessed as damage in lung at 2.5 mg/kg, iv pretreated for 4 hrs followed by exposure to laser irradiation of 808 nm for 5 mins on every 2 days treated for 15 days by H and E staining based analysis; format: organism-based; conditions: in vivo, 360 h, time 15 day
[14] = Toxicity in female BALB/c mouse bearing mouse 4T1 cells assessed as damage in liver at 2.5 mg/kg, iv pretreated for 4 hrs followed by exposure to laser irradiation of 808 nm for 5 mins on every 2 days treated for 15 days by H and E staining based analysis; format: organism-based; conditions: in vivo, 360 h, time 15 day
Mitochondrial membrane [15] = assay: Inhibition of mitochondrial membrane potential in human HepG2 cells at 3.12 uM incubated for 24 hrs by Rh123 probe based CLSM; format: cell membranes
Mitochondrial membrane [16] = assay: Inhibition of mitochondrial membrane potential in mouse 4T1 cells at 3.12 uM preincubated for 4 hrs followed by exposure to laser irradiation of 808 nm for 2 mins and subsequent incubation for 20 hrs by Rh123 probe based CLSM; format: cell membranes; conditions: time 1442.0 min
HepG2 [17] = assay: Induction of apoptosis in human HepG2 cells at 3.12 uM incubated for 4 hrs followed by exposure to laser irradiation of 808 nm for 2 mins by Annexin V-FITC/PI staining based flow cytometry; format: functional, cell-based; conditions: time 242.0 min
Mitochondrial membrane [18] = assay: Inhibition of mitochondrial membrane potential in mouse 4T1 cells at 3.12 uM incubated for 24 hrs by flow cytometry; format: cell membranes
[19] = Drug uptake in human HepG2 cells assessed as increase in fluorescence intensity at 3.12 uM incubated for 4 hrs by CLSM; format: ADME, cell-based; conditions: hepg2, 4 h
HepG2 [20] = assay: Induction of ROS generation in human HepG2 cells at 3.12 uM incubated for 4 hrs followed by exposure to laser irradiation of 808 nm for 2 mins by DCFH-DA probe based CLSM; format: functional, cell-based; conditions: time 242.0 min
4T1 [21] = assay: Induction of ROS generation in mouse 4T1 cells at 3.12 uM incubated for 4 hrs followed by exposure to laser irradiation of 808 nm for 2 mins by flow cytometry; format: functional, cell-based; conditions: time 242.0 min
[22] = Drug uptake in human HepG2 cells assessed as increase in fluorescence intensity at 3.12 uM incubated for 4 hrs by flow cytometry; format: ADME, cell-based; conditions: hepg2, 4 h
Mitochondrial membrane [23] = assay: Inhibition of mitochondrial membrane potential in human HepG2 cells assessed as green fluorescence at 3.12 uM preincubated for 4 hrs followed by exposure to laser irradiation of 808 nm for 2 mins and subsequent incubation for 20 hrs by JC-1 dye based analysis; format: cell membranes; conditions: time 1442.0 min
4T1 [24] = assay: Antitumor activity against mouse 4T1 cells implanted in female BALB/c mouse assessed as cellular damage at 2.5 mg/kg, iv pretreated for 4 hrs followed by exposure to laser irradiation of 808 nm for 5 mins on every 2 days treated for 15 days by H and E staining based analysis; format: functional, organism-based; conditions: time 15.0 day
Mitochondrial membrane [25] = assay: Inhibition of mitochondrial membrane potential in human HepG2 cells at 3.12 uM incubated for 24 hrs by flow cytometry; format: cell membranes
[26] = Cytotoxicity against mouse NIH3T3 cells assessed as survival rate at 25 uM relative to control; format: toxicity, cell-based; conditions: read-out: Survival
HepG2 [27] = assay: Induction of ROS generation in human HepG2 cells at 3.12 uM incubated for 4 hrs followed by exposure to laser irradiation of 808 nm for 2 mins by flow cytometry; format: functional, cell-based; conditions: time 242.0 min
4T1 [28] = assay: Induction of ROS generation in mouse 4T1 cells at 3.12 uM incubated for 4 hrs followed by exposure to laser irradiation of 808 nm for 2 mins by DCFH-DA probe based CLSM; format: functional, cell-based; conditions: time 242.0 min
[29] = Toxicity in female BALB/c mouse bearing mouse 4T1 cells assessed as damage in spleen at 1.8 mg/kg, iv pretreated for 4 hrs followed by exposure to laser irradiation of 808 nm for 5 mins on every 2 days treated for 15 days by H and E staining based analysis; format: organism-based; conditions: in vivo, 360 h, time 15 day
[30] = Toxicity in ICR mouse bearing mouse H22 cells assessed as damage in kidney at 1.8 mg/kg, iv pretreated for 4 hrs followed by exposure to laser irradiation of 808 nm for 5 mins on every 2 days treated for 15 days by H and E staining based analysis; format: organism-based; conditions: in vivo, 360 h, time 15 day
[31] = Drug accumulation in tumor of female BALB/c mouse bearing mouse 4T1 cells at 1.8 mg/kg, iv measured up to 12 hrs by fluorescence imaging analysis; format: ADME, organism-based, Neoplasm; conditions: in vivo
4T1 [32] = assay: Photothermal cytotoxicity against mouse 4T1 cells up to 25 uM preincubated for 4 hrs followed by exposure to laser irradiation of 808 nm for 2 mins and subsequent incubation for 20 hrs by MTT assay; format: functional, cell-based
[33] = Toxicity in ICR mouse bearing mouse H22 cells assessed as damage in liver at 1.8 mg/kg, iv pretreated for 4 hrs followed by exposure to laser irradiation of 808 nm for 5 mins on every 2 days treated for 15 days by H and E staining based analysis; format: organism-based; conditions: in vivo, 360 h, time 15 day

SMILES: COCCOCCOCCN1/C(=C/C=C/C(=C/C=C/C2=[N+](CCOCCOCCOC)c3ccccc3C2(C)C)C(=O)OC)C(C)(C)c2ccccc21.[I-]
- Drug uptake [1]: Active
- Activity [2]: Active
- inhibition (Mitochondrial membrane [3]): Active; Certain Degree Of Inhibition Was Observed
- inhibition (4T1 [4]): Active
- inhibition (Mitochondrial membrane [5]): Active; Significant Inhibition Was Observed
- inhibition (Mitochondrial membrane [6]): Active; Significant Inhibition Was Observed
- Stability [7]: Stable
- Activity [8]: Active; Highest Efficiency Observed Among Tested Compounds
- Activity [9]: Active
- Activity (4T1 [10]): Active
- Drug uptake [11]: Active
- inhibition (Mitochondrial membrane [12]): Active; Significant Inhibition Was Observed
- Activity [13]: Non-toxic
- Activity [14]: Non-toxic
- inhibition (Mitochondrial membrane [15]): Active; Certain Degree Of Inhibition Was Observed
- inhibition (Mitochondrial membrane [16]): Active; Significant Inhibition Was Observed
- Activity (HepG2 [17]): Active
- inhibition (Mitochondrial membrane [18]): Active; Certain Degree Of Inhibition Was Observed
- Drug uptake [19]: Active
- Activity (HepG2 [20]): Active; Exhibited Only A Smaller Increase In Activity
- Activity (4T1 [21]): Active; Exhibited Only A Smaller Increase In Activity
- Drug uptake [22]: Active
- inhibition (Mitochondrial membrane [23]): Active
- Activity (4T1 [24]): Active
- inhibition (Mitochondrial membrane [25]): Active; Certain Degree Of Inhibition Was Observed
- viability at 25 µM [26]: > 60%
- Activity (HepG2 [27]): Active; Exhibited Only A Smaller Increase In Activity
- Activity (4T1 [28]): Active; Exhibited Only A Smaller Increase In Activity

SMILES: COC(=O)C(=C\C=C\C1=[N+](C)c2ccccc2C1(C)C)/C=C/C=C1/N(C)c2ccccc2C1(C)C.[I-]
- Activity [29]: Non-toxic
- Drug uptake [1]: Active
- Activity [2]: Active
- Activity [30]: Non-toxic
- inhibition (Mitochondrial membrane [3]): Active; Certain Degree Of Inhibition Was Observed
- inhibition (Mitochondrial membrane [5]): Active; Significant Inhibition Was Observed
- inhibition (Mitochondrial membrane [6]): Active; Significant Inhibition Was Observed
- Drug uptake [31]: Active
- Stability [7]: Unstable
- Activity [8]: Not active; Lowest Efficiency Observed Among Tested Compounds
- Activity [9]: inactive
- Activity (4T1 [10]): Active
- Drug uptake [11]: Active
- Activity (4T1 [32]): Not active; Limited Photo-Thermal Toxicity Was Observed
- Activity [33]: Non-toxic
- inhibition (Mitochondrial membrane [12]): Active; Significant Inhibition Was Observed
- inhibition (Mitochondrial membrane [15]): Active; Certain Degree Of Inhibition Was Observed
- inhibition (Mitochondrial membrane [16]): Active; Significant Inhibition Was Observed
- Activity (HepG2 [17]): Active
- inhibition (Mitochondrial membrane [18]): Active; Certain Degree Of Inhibition Was Observed
- Drug uptake [19]: Active
- Activity (HepG2 [20]): Active
- Activity (4T1 [21]): Active
- Drug uptake [22]: Active
- inhibition (Mitochondrial membrane [25]): Active; Certain Degree Of Inhibition Was Observed
- viability at 25 µM [26]: > 60%
- Activity (HepG2 [27]): Active
- Activity (4T1 [28]): Active
